Structures are written as SMILES.

Holding throughout (format): functional
For experiment [1], the species on record is Mus musculus. Description: Inhibitory activity from the roots of Angelica furcijuga on LPS-induced NO production in mouse peritoneal macrophages was evaluated at 100 uM.
The species named for experiment [2] is Rattus norvegicus. Kind of experiment: Inhibitory activity against D-GalN-induced cytotoxicity in rat hepatocytes at 100 uM. To be noted: Hepatocyte.
For experiment [3], the species on record is Mus musculus. Description: Inhibitory activity against LPS-induced NO production in mouse peritoneal macrophages was evaluated.
The species named for experiment [4] is Rattus norvegicus. Kind of experiment: Inhibitory activity against D-GalN-induced cytotoxicity in rat hepatocytes. To be noted: Hepatocyte.
Experiment [5] is filed under the species Mus musculus. Kind of experiment: Inhibitory activity against LPS-induced NO production in mouse peritoneal macrophages was evaluated at 100 uM.

In general, inhibition refers to the relative decrease from the control value, in per cent. The term IC50 denotes the point on the concentration scale where inhibition reaches its midpoint. As to `CC(C)(O)[C@H](O)Cc1cc2ccc(=O)oc2cc1O[C@@H]1O[C@H](CO)[C@@H](O)[C@H](O)[C@H]1O`, the inhibition at 100 µM in the experiment filed under Mus musculus [1] was 49%; in the experiment filed under Rattus norvegicus [2], 5.8%. Moreover, the IC50 in the experiment filed under Mus musculus [3] and in the experiment listed under Rattus norvegicus [4] was more than 100 µM in each case.
Take `CC(C)(O)C1Cc2cc(CCC(=O)O)c(O[C@@H]3O[C@H](CO)[C@@H](O)[C@H](O)[C@H]3O)cc2O1` (stereo partly drawn): the inhibition at 100 µM in the experiment filed under Mus musculus [1] came out at 32%; in the experiment filed under Rattus norvegicus [2] it was 0.6%. Besides, the IC50 in the experiment listed under Mus musculus [3] and in the experiment filed under Rattus norvegicus [4] was more than 100 µM each time.
As for `CC1(C)Oc2ccc3ccc(=O)oc3c2C[C@H]1O[C@@H]1O[C@H](CO)[C@@H](O)[C@H](O)[C@H]1O`, the inhibition at 100 µM in the experiment filed under Mus musculus [1] was 21%; in the experiment listed under Rattus norvegicus [2], 1.4%. The IC50 in the experiment listed under Mus musculus [3] and in the experiment filed under Rattus norvegicus [4] was more than 100 µM throughout.
Usually Inhibition stands for the change of the read-out against control, counted positive when it falls. As for `COc1cc(C(O)C(CO)Oc2ccc(/C=C/CO[C@@H]3O[C@H](CO)[C@@H](O)[C@H](O)[C@H]3O)cc2OC)ccc1O` (stereo partly drawn), the inhibition at 100 µM in the experiment filed under Rattus norvegicus [2] was -0.2%. For the same compound, the IC50 in the experiment listed under Mus musculus [3] and in the experiment filed under Rattus norvegicus [4] was more than 100 µM each time. Besides, the Inhibition in the experiment listed under Mus musculus [3] is recorded as -26%.
As to `C/C=C(\C)C(=O)O[C@@H]1[C@H](OC(=O)C(C)C)c2c(ccc3ccc(=O)oc23)OC1(C)C`, the inhibition at 100 µM in the experiment filed under Rattus norvegicus [2] worked out at 10%. Besides, the IC50 in the experiment listed under Mus musculus [3] is 8.8 µM; in the experiment listed under Rattus norvegicus [4], more than 100 µM.
The corresponding values for `C/C=C(\C)C(=O)O[C@@H]1[C@H](OC(=O)C(C)CC)c2c(ccc3ccc(=O)oc23)OC1(C)C` (stereo partly drawn) are -0.5%, 5.1 µM and more than 100 µM.
In the case of `O=c1ccc2ccc(O[C@@H]3O[C@H](COC4OC[C@](O)(CO)[C@H]4O)[C@@H](O)[C@H](O)[C@H]3O)cc2o1` (stereo partly drawn), the inhibition at 100 µM in the experiment listed under Mus musculus [1] was 36%; in the experiment filed under Rattus norvegicus [2], -2.1%. Moreover, the IC50 in the experiment filed under Mus musculus [3] and in the experiment filed under Rattus norvegicus [4] was more than 100 µM throughout.
On to `CCC(C)C(=O)O[C@@H]1c2c(ccc3ccc(=O)oc23)OC(C)(C)[C@@H]1OC(C)=O` (stereo partly drawn), for which the inhibition at 100 µM in the experiment filed under Rattus norvegicus [2] is -2.5%. Besides, the IC50 in the experiment listed under Mus musculus [3] was 8.2 µM; in the experiment filed under Rattus norvegicus [4], more than 100 µM.
On to `CC1(C)Oc2ccc3ccc(=O)oc3c2[C@@H](O)[C@H]1O`, for which, in the experiment filed under Rattus norvegicus [2], the inhibition at 100 µM was determined as 6.5%. Further, the values for the IC50 in the experiment listed under Mus musculus [3] and in the experiment listed under Rattus norvegicus [4] were 91 µM and more than 100 µM, respectively.
On to `CC(=O)O[C@@H]1c2c(ccc3ccc(=O)oc23)OC(C)(C)[C@@H]1OC(=O)C1(C)OC1C` (stereo partly drawn), for which the IC50 in the experiment listed under Mus musculus [3] was 53 µM; in the experiment filed under Rattus norvegicus [4], 29 µM.
`C=C[C@@H](O)C#CC#CC/C=C\CCCCCCC`: the inhibition at 100 µM in the experiment filed under Rattus norvegicus [2] is -0.6%. The IC50 in the experiment listed under Mus musculus [3] was 4.8 µM; in the experiment listed under Rattus norvegicus [4], more than 100 µM.
Taken in the same sequence, the figures for `C/C=C(\C)C(=O)O[C@@H]1c2c(ccc3ccc(=O)oc23)OC(C)(C)[C@@H]1OC(=O)/C(C)=C/C` were 2.8%, 3.4 µM and more than 100 µM.
In the case of `CC1(C)Oc2ccc3ccc(=O)oc3c2[C@H](O)[C@H]1O`, the inhibition at 100 µM in the experiment filed under Mus musculus [5] amounted to 36%; in the experiment listed under Rattus norvegicus [2], 1.5%. Further, the IC50 in the experiment listed under Mus musculus [3] and in the experiment listed under Rattus norvegicus [4] was more than 100 µM throughout.
Turning to `C/C=C(\C)C(=O)O[C@@H]1[C@H](OC(C)=O)c2c(ccc3ccc(=O)oc23)OC1(C)C`, the inhibition at 100 µM in the experiment filed under Rattus norvegicus [2] was 13%. The figures for the IC50 in the experiment listed under Mus musculus [3] and in the experiment filed under Rattus norvegicus [4] were 8.8 µM and more than 100 µM, respectively.
Regarding `COc1c2ccoc2cc2oc(=O)ccc12` [BERGAPTEN], the inhibition at 100 µM in the experiment listed under Mus musculus [1] turned out to be 49%; in the experiment listed under Rattus norvegicus [2], 23%. For the same compound, the IC50 in the experiment filed under Mus musculus [3] and in the experiment filed under Rattus norvegicus [4] was more than 100 µM throughout.
As for `C=C[C@@H](O)C#CC#C[C@@H](O)/C=C\CCCCCCC` [FALCARINDIOL], the inhibition at 100 µM in the experiment filed under Rattus norvegicus [2] was -33%. Further, the results for the IC50 in the experiment filed under Mus musculus [3] and in the experiment listed under Rattus norvegicus [4] were 4.4 µM and more than 100 µM, respectively.
The corresponding values for `C/C=C(\C)C(=O)O[C@@H]1c2c(ccc3ccc(=O)oc23)OC(C)(C)[C@@H]1OC(C)=O` [PTERYXIN] are 4.4%, 20 µM and more than 100 µM.
Regarding `CC(=O)O[C@@H]1[C@H](OC(=O)C(C)C)c2c(ccc3ccc(=O)oc23)OC1(C)C` [SERAVSHANIN], the inhibition at 100 µM in the experiment listed under Rattus norvegicus [2] is -2.2%. Also, the IC50 is 4.2 µM in the experiment listed under Mus musculus [3] and more than 100 µM in the experiment listed under Rattus norvegicus [4].
Turning to `CC(=O)O[C@@H]1[C@H](OC(=O)CC(C)C)c2c(ccc3ccc(=O)oc23)OC1(C)C` [SUKSDORFIN], in the experiment listed under Rattus norvegicus [2], the inhibition at 100 µM was -3.4%. Besides, the IC50 in the experiment listed under Mus musculus [3] was 11 µM; in the experiment listed under Rattus norvegicus [4], more than 100 µM.
